Patent US20220054540A1, “Ferric Carboxymaltose In The Treatment Of Heart Failure And In The Treatment Of Congestion In Heart Failure” (Vifor (International) AG, priority 2018, published 2022)

Legend:
[1] = test system: ambulatory patients with NYHA class II or III CHF and iron deficiency; experiment: FAIR-HF plasma volume status (PVS) substudy: post-hoc analysis of calculated PVS and clinical congestion, IV FCM vs placebo; assay type: in vivo, human (patients); details: for change from baseline in Hct / change from baseline in PVS / change from baseline in weight: mean±SD; for change from baseline in Hct: significant increase compared to placebo
Experimental: FAIR-HF is a multi-centre, randomized, double-blind trial including 459 ambulatory patients with NYHA class II or III CHF, a left ventricular ejection fraction (LVEF) ≤40% (NYHA II) or ≤45% (NYHA III), iron deficiency (ID) as defined by a ferritin <100 ug/l or 100 to 299 ug/l with a transferrin saturation (TSAT)<20%, and a hemoglobin (Hb) level between 9.5 and 13.5 g/dl. Patients were randomized in a 2:1 ratio to intravenous (IV) iron as ferric carboxymaltose (FCM; Ferinject®) or IV placebo (saline) weekly until iron repletion (correction phase), then 4 weekly until week 24 (maintenance phase). FCM was administered in doses of 200 mg (4 mL) weekly up to iron repletion (correction phase of variable duration depending on individual iron deficit). The calculated dose was rounded to the next 100 mg iron, i.e. the final dose may be 100 mg iron depending on the individual iron deficit. After the correction phase, FCM was administered monthly in doses of 200 mg until the 24th week (maintenance phase).
In the placebo group, during the correction phase, patients will receive the number of normal saline injections (4 mL weekly) corresponding to the calculated total iron dose needed according to the individual iron deficit. During the maintenance phase, placebo patients will receive 4 mL normal saline monthly. Regular assessments were done at weeks 4, 12, and 24.
The hematocrit value (Hct or Ht) and weight at randomization were used for plasma volume status (PVS) calculations and were available in 436 (95%) patients whose data were therefore used in this post-hoc analysis.
Actual plasma volume (PV) was calculated with the following equation that was derived by curve-fitting techniques using subjects' Hct and weight compared with PV values measured with gold standard radioisotope assays:
actual PV=([1−Hct]×[a+(b×weight [kg])])
where Hct is a fraction and a=1530 in males and 864 in females, and b=41 in males and 47.9 in females.
Ideal PV was calculated from the following well established formula:
where c=39 in males and 40 in females
Relative PVS, an index of the degree to which patients have deviated from their ideal PV, was subsequently calculated from the following equation:
PVS=([actual PV−ideal PV]/ideal PV)×100%
Patients were weighed and examined for signs and symptoms of congestion at randomization and at weeks 4, 12 and 24. The presence or absence of peripheral edema, pulmonary congestion (crackles, rales), and an S3 gallop (third heart sound) were recorded, as was the actual jugular venous pressure (JVP).
Data are presented as mean±SD, frequencies (%), or medians (interquartile range [IQR]). Intergroup comparisons were made using a Kruskall-Wallis analysis of variance (ANOVA), analysis of covariance (ANCOVA), Student t-test, Pearson χ2 test, or a Mann Whitney U-test as appropriate. Associations between variables were determined using logistic regression. A P-value <0.10 was used to enter and retain covariates into stepwise multivariable regression models.
To assess the impact of treatment assignment on PVS, comparisons of changes in PVS from baseline at 4, 12, and 24 weeks between the placebo and FCM group were evaluated by comparing the least square means at each visit from a repeated-measures model using an unstructured covariance structure and adjusting for the continuous baseline value and a visit x drug interaction. Changes over time for other variables were similarly determined.

[2] = test system: ambulatory patients with NYHA class II or III CHF and iron deficiency; details: after 24 weeks of treatment, IV FCM compared to saline; cited from earlier work
[3] = cited from earlier work
[4] = cited from earlier work; remark: listed apart in the source
[5] = publications, e.g. Qunibi et al. 2011; cited from earlier work
[6] = week 4, significant reduction compared to placebo

In the case of “polynuclear iron(III)-oxyhydroxide carboxypolymaltose (carboxymaltodextrin) [FCM]”, the peripheral edema ([1]; FCM treatment compared to placebo (FIG. 2d)) is reported as “improvement in peripheral edema”, the “improvement in pulmonary edema” value ([1]; FCM treatment vs placebo, P=0.35) is reported as “not evident” and the “improvement in jugular venous distension” value ([1]; FCM treatment vs placebo, P=0.54) is reported as “not evident”. The “improvement in presence of an S3 gallop rhythm” value ([1]; FCM treatment vs placebo, P=1.00) was “not evident”, the “time of maximal treatment effect on PVS” value ([1]; FCM vs placebo) was 12 week and the change from baseline in Hct ([1]; week 4) was 2 ± 4%. For the same substance, the “change from baseline in PVS” value [1, 6] was −2.5±5.9%, the “change from baseline in weight” value [1, 6] was -0.2 ± 2.4 kg and the “change from baseline in weight” value ([1]; week 12, not significant compared to placebo) was 0.2 ± 3.0 kg. The change from baseline in Hct ([1]; week 12) was 3 ± 4%, the “change from baseline in PVS” value ([1]; week 12, significant reduction compared to placebo) was −3.9±6.8% and the “change from baseline in weight” value ([1]; week 24, not significant compared to placebo) was 0.3 ± 3.2 kg. For the same substance, the change from baseline in Hct ([1]; week 24) was 3 ± 5%, the “change from baseline in PVS” value ([1]; week 24, significant reduction compared to placebo) was −4.1±7.4% and the “6 minute walking distance (6MWD)” value [2] was “significant improvements”. The NYHA class [2] was “significant improvements”, the “Patient Global Assessment (PGA)” value [2] was “significant improvements” and the “stability of the iron-carbohydrate complex” value ([3]; compared with ferric gluconate and iron sucrose) was “more stable than ferric gluconate or iron sucrose”. The “pH of the complex” value ([3]; nearly neutral) was 5.0-7.0, the dextran cross-reactivity ([4]; in vivo) was “no dextran cross-reactivity” and the “tolerability of rapid infusion” value ([4]; up to 1000 mg of elemental iron over 15 min, intravenous) was “well tolerated”. For the same substance, the “peripheral edema as adverse event” value [5] was “one of the most commonly occurring adverse events”.
